Assay results taken from patent publication US7115657B2, “Bifunctional agents possessing antioxidant and antiarrhythmic activity” (Uni-Pharma Kleon Tsetis Pharmaceutical Laboratories S.A., priority 2000, dated 2006).

Columns and labels:
[1] = tested on: microsomal lipid peroxidation; test: in vitro lipid peroxidation, heat-inactivated hepatic microsomal fraction, Fe2+/ascorbate, TBA reactive material; assay type: biochemical, Fischer rats
Description: The antioxidant activity of the new compounds was initially evaluated as set forth below. in vitro lipid peroxidation (Bationi J. P., Fontecave M., Jaouen M., Mansuy D. “Vitamin E derivatives as new potent inhibitors of microsomal lipid peroxidation” Biochem. Biophys. Res. Com. 1991, 174, 1103)
For these experiments, heat-inactivated hepatic microsomal fraction from untreated Fischer rats (200–220 g), corresponding to 0.125 g liver/ml final volume, was used. The incubation mixture contained the microsomal fraction, ascorbic acid (0.2 mM), in Tris buffer (50 mM, pH 7.4) and various concentrations (5 μM–1 mM) of the examined compounds dissolved in DMSO. The lipid peroxidation reaction was initiated with the addition of a freshly prepared FeSO4 solution (10 μM) and aliquots were taken at various time intervals for 45 min. Lipid peroxidation was estimated spectroscopically (535 nm vs. 600 nm) as 2-thiobarbitouric acid (TBA) reactive material. Each experiment was performed at least in triplicate.
The effect of various concentrations of representative compounds of the present invention on lipid peroxidation is shown in Table 1. […] However, there are quantitative differences that appear to be connected with the position of the amide substituent and the length of the side chain.

[2] = tested on: isolated heart preparations; test: antiarrhythmic activity on isolated heart preparations, Krebs perfused Langerdorff model of ischemia and reperfusion; design: species or system Male Wistar rats; unit not given here; conditions: drug present during last 5 min of ischemia and during reperfusion, control (no drug) 12 ± 4
Description: The evaluation of the antiarrhythmic activity of the compounds set forth above was carried out on isolated heart preparations using the Krebs perfused Langerdorff model (Heisier B. E., Ferrier G. R. “Proarrhythmic actions of flecainide in an isolated tissue model of ischemia and reperfusion” J. Pharmacol. Exp. Ther. 1996, 279, 317). Male Wistar rats, 250–300 g, were anesthetized with pentobarbitone (15 mg/rat=5 mg/100 g body weight) and heparinized (1000 IU)
Hearts were excised and washed in ice cold modified Krebs-Henseleit (KHB) buffer of the following composition in Mm: NaCl 118, KCl 4.7, NaHCO3 25, KH2PO4 1.2, MgSO4 1.4, CaCl2 2.5, Glucose 11. Hearts were mounted on a Langerdorff apparatus, perfused at a pressure 100 mmHg, at 37° C., with KHB (9 ml/min) for 30–40 min and then the “ischemic” KHB solution was applied for 15 min (this solution is a KH buffer in which the glucose is substituted by Tris HCl. The hearts were then perfused with normal KHB for 30 min. Drugs were present during the last 5 min of ischemia and during reperfusion at the final concentration of 30 or 100 μM.
Electrocardiograms were recorded during equilibration, ischemia and reperfusion.
The most important arrhythmias seem to occur during early reperfusion (Li G-R., Ferrier G. R. “Effects of lidocaine on reperfusion arrhythmias and electrophysiological properties in an isolated ventricular muscle model of ischemia and reperfusion” J. Pharmacol. Exp. Ther. 1991, 257, 997).

Row | Molecule | % Inhibition ([1]; compound concentration 10 μM) [%] | % Inhibition ([1]; compound concentration 50 μM) [%] | further results
1 | Vitamin E [reference compound] | 21 |  | 
2 | CCN(CC)CC(=O)NC1CC(C)(C)Oc2c(C)c(C)c(O)c(C)c21 (stereo not shown) [i, N-(3,4-dihydro-6-hydroxy-2,2,5,7,8-pentamethyl-2H-1-benzopyran-4-yl)-(diethylamino)acetamide] |  | 98.6 | 
3 | CCCCCCC1(C)CC(NC(=O)CN(CC)CC)c2c(C)c(O)c(C)c(C)c2O1 (stereo not shown) [j, N-(3,4-dihydro-2-hexyl-6-hydroxy-2,5,7,8-tetramethyl-2H-1-benzopyran-4-yl)-(diethylamino)acetamide] |  | 96.1 | 
4 | CCCCCCC1(C)CCc2c(c(C)c(C)c(O)c2C(=O)NCCN(CC)CC)O1 (stereo not shown) [e, N-(3,4-dihydro-2-hexyl-6-hydroxy-2,7,8-trimethyl-2H-1-benzopyran-5-carbonyl)-N′,N′-diethyl Ethylenediamine] |  | 87.4 | 
5 | CCCCCCCCCCCCC1(C(=O)NCCN(CC)CC)CCc2c(C)c(O)c(C)c(C)c2O1 (stereo not shown) [c, N-(3,4-dihydro-2-dodecyl-6-hydroxy-5,7,8-trimethyl-2H-1-benzopyran-2-carbonyl)-N′,N′-diethyl Ethylenediamine] |  |  | % Inhibition ([1]; compound concentration 200 μM): 0%; % Inhibition ([1]; compound concentration 400 μM): 48.6%; % Inhibition ([1]; compound concentration 500 μM): 93.8%
6 | CCCCCCC1(C)CCc2c(NC(=O)CN(CC)CC)c(O)c(C)c(C)c2O1 (stereo not shown) [h, N-(3,4-dihydro-2-hexyl-6-hydroxy-2,7,8-trimethyl-2H-1-benzopyran-5-yl)-(diethylamino)acetamide] | 100 |  | % Inhibition ([1]; compound concentration 5 μM): 17.4%; Incidence of arrhythmias during the reperfusion period ([2]; 30 μM): 6 ± 3; Incidence of arrhythmias during the reperfusion period ([2]; 100 μM): 6 ± 2.5
7 | Cc1c(C)c2c(c(C)c1O)CCC(C)(C(=O)O)O2 (stereo not shown) [Trolox, reference compound] | 49 |  | 
8 | CCN(CC)CC(=O)Nc1c(O)c(C)c(C)c2c1CCC(C)(C)O2 [g, N-(3,4-dihydro-6-hydroxy-2,2,7,8-tetramethyl-2H-1-benzopyran-5-yl)-(diethylamino)acetamide] | 100 |  | % Inhibition ([1]; compound concentration 5 μM): 72.4%; Incidence of arrhythmias during the reperfusion period ([2]; 30 μM): 8 ± 2.1; Incidence of arrhythmias during the reperfusion period ([2]; 100 μM): 7 ± 2
9 | CCCCCCC1(C(=O)NCCN(CC)CC)CCc2c(C)c(O)c(C)c(C)c2O1 (stereo not shown) [b, N-(3,4-dihydro-2-hexyl-6-hydroxy-5,7,8-trimethyl-2H-1-benzopyran-2-carbonyl)-N′,N′-diethyl Ethylenediamine] | 7.7 | 91 | 
10 | CCN(CC)CCNC(=O)c1c(O)c(C)c(C)c2c1CCC(C)(C)O2 [d, N-(3,4-dihydro-6-hydroxy-2,2,7,8-tetramethyl-2H-1-benzopyran-5-carbonyl)-N′,N′-diethyl Ethylenediamine] | 38.4 | 98.1 | 
11 | CCCCCCCCCCCCC1(C)CCc2c(c(C)c(C)c(O)c2C(=O)NCCN(CC)CC)O1 (stereo not shown) [f, N-(3,4-dihydro-2-dodecyl-6-hydroxy-2,7,8-trimethyl-2H-1-benzopyran-5-carbonyl)-N′,N′-diethyl Ethylenediamine] |  | 0 | % Inhibition ([1]; compound concentration 1000 μM): 100%
12 | CCN(CC)CCNC(=O)C1(C)CCc2c(C)c(O)c(C)c(C)c2O1 (stereo not shown) [Compound a, N-(3,4-dihydro-6-hydroxy-2,5,7,8-tetramethyl-2H-1-benzopyran-2-carbonyl)-N′,N′-diethyl Ethylenediamine] | 96.3 |  | Incidence of arrhythmias during the reperfusion period ([2]; 30 μM): 7 ± 3.5; Incidence of arrhythmias during the reperfusion period ([2]; 100 μM): 5 ± 2
